Marks after values point to notes of the source that are not given here.
Key:
[1] = biological target: ATM (Homo sapiens (Human), UniProt Q13315); test: Caliper mobility shift assay for ATM; type: biochemical; settings: read-out: IC50 of inhibitory activity on ATM kinase
Procedure: 1.2 Determination of the Inhibitory Activities of Compounds on ATM: Caliper Mobility Shift Assay for ATM
To a 96-well plate, 98 μL of DMSO and 2 μL of the 10 mM stock solution were added and mixed evenly so that the concentration of the solution was 200 μM.
Based on the inhibitory rates of the compound at different concentrations, IC50 was calculated according to the formula: Y=Bottom+(Top−Bottom)/(1+(IC50/X)^HillSlope).

[2] = test system: Human glioblastoma cell line LN-18; test: LN18 cell proliferation combined with radiotherapy (CTG assay); type: cell-based; settings: Homo sapiens, LN-18, light or radiation study; LN18 cells, 1 Gy irradiation 1 h after compound, 6 days, CTG;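 further: readout is CTG luminescence proliferation not KAP1 phosphorylation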
Procedure: 5 Test of the Inhibitory Activities of the Compounds of the Present Disclosure Combined with Radiotherapy on LN18 Cell Proliferation
• Cell: Human glioblastoma cell line LN-18
5.2 Experimental Procedures
• (1) Cell inoculation • 1) The cell culture fluid was preheated at 37° C. • 2) A complete culture medium of LN18 cells was prepared, at a ratio of DMEM medium:FBS=95:5 (V/V). • 3) Cells were digested with trypsin, collected to serve as a cell suspension, and counted, the cell suspension was then added into a 96-well plate at 1500 cells/well and 100 μL of cell fluid/well, and three parallel wells were set. • 4) After inoculated in the plate, the cells were cultured overnight under the condition of 37° C. and 5% CO2. • (2) Compound addition and incubation • 1) AZD1390 and tested compounds, respectively, were sequentially diluted 5 times with DMSO, starting from the concentration of 10 mM and yielding the concentrations of 10, 2, 0.4, 0.08, 0.016, 0.0032, 0.00064, 0.000128, and 0.0000256 mM in turn. The compound solutions at the above concentrations were diluted 5000 times with the complete culture medium. The final 2× concentrations were in order 2000, 400, 80, 16, 3.2, 0.64, 0.128, 0.0256, and 0.00512 nM. The vehicle control was 0.02% DMSO culture fluid. • 2) A complete culture medium containing 100 μL of the compound solution was added to each well, and the final concentrations of the compounds in the wells were in order 1000, 200, 40, 8, 1.6, 0.32, 0.064, 0.0128, and 0.00256 nM. The 0.01% DMSO culture fluid was contained in the vehicle control well. After incubated with compound for 1 h, the cells were irradiated at a dose of 1 Gy. • 3) After irradiation, the plate was put into an incubator and incubated under the condition of 37° C. and 5% CO2 for 6 days. Then detection was performed by adopting CTG assay (100 μL of liquid from each well was sucked out and discarded, and 50 μL of CTG reagent was added to each well, and incubated at room temperature for 30 min, and the luminescence intensity was detected). • (3) Data analysis • 1) The Luminescence signal (RLU) of each well was detected. • 2) Proliferation inhibitory activity was calculated according to the formula: % inhibitory activity=RLUtreatment/RLUAvg(Vehicle)*100. 5.3 the Inhibitory Activities of Compounds of the Present Disclosure Combined with Radiotherapy on LN18 Cell Proliferation

[3] = test system: subcutaneous xenograft tumor of human non-small cell lung cancer cell line NCI-H441; test: NCI-H441 subcutaneous xenograft, combined with irinotecan liposome injection; type: in vivo, NU/NU mice; settings: for D 17 TGI / D 17 TV (MEAN ± SD) / Tumor weight / Tumor weight inhibitory rate: compound 25 mg/kg intragastric + irinotecan liposome 2.5 mg/kg ip; for D 17 TGI / D 17 TV (MEAN ± SD): day 17; for Tumor weight / Tumor weight inhibitory rate: end of test d17
Procedure: 6 Efficacy Test of the Compounds of the Present Disclosure Combined with Irinotecan Liposome Injection on Inhibiting the Growth of Subcutaneous Xenograft Tumor of Human Non-Small Cell Lung Cancer Cell Line NCI-H441
6.1 Experimental Animals: NU/NU Mice, SPF, Female, 20 to 30 g.
Irinotecan liposome injection (HE072), 43 mg:10 mL, milky white liquid, batch No. B37191202, provided by Preparation Research Institute 2 from CSPC Zhongqi Pharmaceutical Technology (Shijiazhuang) Co., Ltd., diluted to an appropriate concentration with 5% glucose injection while testing.
NCI-H441 cells, provided by Nanjing Kebai Biotechnology Co., Ltd.; 1640 culture medium (gibco Company):fetal bovine serum (Lanzhou Bailing)=90%:10%, 37° C., 5% CO2.
NU/NU nude mice were subcutaneously inoculated with NCI-H441 human non-small cell lung cancer cells. When the mean tumor volume reached 170 to 172 mm^3 (15 days after inoculation), the animals were evenly divided into groups according to the tumor volume (d0), with 6 mice in each group. 2.5 mg/kg of HE072 was administered intraperitoneally once a week for 2 times. Vehicle control, 25 mg/kg of A-193, 25 mg/kg of A-182, and 25 mg/kg of AZD1390 were administered intragastrically once a day, from Monday to Thursday every week except Friday to Sunday, for 2 weeks (8 times). The tumor volume was measured twice a week, the body weight of mouse was weighed every day, and the data were recorded. The tumor volume (TV) was calculated according to the formula: TV=½×a×b2, wherein a and b represent the long and short diameters of tumor, respectively. Tumor growth inhibitory rate TGI (%)=[1−(Ti−T0)/(Vi−V0)]×100, wherein Ti represents the mean tumor volume of a given treatment group on a certain day; TO represents the mean tumor volume of this treatment group at the beginning of administration; Vi represents the mean tumor volume of the vehicle control group on a certain day (the same day as that in Ti); V0 represents the mean tumor volume of the vehicle control group at the beginning of administration. At the end of the test (d17), the animals were sacrificed, the tumors were stripped and weighed, and the tumor weight inhibitory rates were calculated.

[4] = test system: subcutaneous xenograft tumor of human glioblastoma LN-18; test: LN-18 subcutaneous xenograft, combined with radiotherapy; type: in vivo, NOG mice; settings: compound 10 mg/kg intragastric qd × 5 + IR 1 Gy, day 17
Procedure, shortened: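 Female NOG mice (18–22 g) bearing subcutaneous LN-18 tumours (1.5*10^7 cells, right costal region) were grouped at 100–150 mm^3; radiotherapy followed compound dosing by 1 h. Caliper volumes twice weekly (0.5×long×short^2); TGI % derived from treated vs control mean volume changes from day 0.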

ATM, sequence (Q13315 whole entry): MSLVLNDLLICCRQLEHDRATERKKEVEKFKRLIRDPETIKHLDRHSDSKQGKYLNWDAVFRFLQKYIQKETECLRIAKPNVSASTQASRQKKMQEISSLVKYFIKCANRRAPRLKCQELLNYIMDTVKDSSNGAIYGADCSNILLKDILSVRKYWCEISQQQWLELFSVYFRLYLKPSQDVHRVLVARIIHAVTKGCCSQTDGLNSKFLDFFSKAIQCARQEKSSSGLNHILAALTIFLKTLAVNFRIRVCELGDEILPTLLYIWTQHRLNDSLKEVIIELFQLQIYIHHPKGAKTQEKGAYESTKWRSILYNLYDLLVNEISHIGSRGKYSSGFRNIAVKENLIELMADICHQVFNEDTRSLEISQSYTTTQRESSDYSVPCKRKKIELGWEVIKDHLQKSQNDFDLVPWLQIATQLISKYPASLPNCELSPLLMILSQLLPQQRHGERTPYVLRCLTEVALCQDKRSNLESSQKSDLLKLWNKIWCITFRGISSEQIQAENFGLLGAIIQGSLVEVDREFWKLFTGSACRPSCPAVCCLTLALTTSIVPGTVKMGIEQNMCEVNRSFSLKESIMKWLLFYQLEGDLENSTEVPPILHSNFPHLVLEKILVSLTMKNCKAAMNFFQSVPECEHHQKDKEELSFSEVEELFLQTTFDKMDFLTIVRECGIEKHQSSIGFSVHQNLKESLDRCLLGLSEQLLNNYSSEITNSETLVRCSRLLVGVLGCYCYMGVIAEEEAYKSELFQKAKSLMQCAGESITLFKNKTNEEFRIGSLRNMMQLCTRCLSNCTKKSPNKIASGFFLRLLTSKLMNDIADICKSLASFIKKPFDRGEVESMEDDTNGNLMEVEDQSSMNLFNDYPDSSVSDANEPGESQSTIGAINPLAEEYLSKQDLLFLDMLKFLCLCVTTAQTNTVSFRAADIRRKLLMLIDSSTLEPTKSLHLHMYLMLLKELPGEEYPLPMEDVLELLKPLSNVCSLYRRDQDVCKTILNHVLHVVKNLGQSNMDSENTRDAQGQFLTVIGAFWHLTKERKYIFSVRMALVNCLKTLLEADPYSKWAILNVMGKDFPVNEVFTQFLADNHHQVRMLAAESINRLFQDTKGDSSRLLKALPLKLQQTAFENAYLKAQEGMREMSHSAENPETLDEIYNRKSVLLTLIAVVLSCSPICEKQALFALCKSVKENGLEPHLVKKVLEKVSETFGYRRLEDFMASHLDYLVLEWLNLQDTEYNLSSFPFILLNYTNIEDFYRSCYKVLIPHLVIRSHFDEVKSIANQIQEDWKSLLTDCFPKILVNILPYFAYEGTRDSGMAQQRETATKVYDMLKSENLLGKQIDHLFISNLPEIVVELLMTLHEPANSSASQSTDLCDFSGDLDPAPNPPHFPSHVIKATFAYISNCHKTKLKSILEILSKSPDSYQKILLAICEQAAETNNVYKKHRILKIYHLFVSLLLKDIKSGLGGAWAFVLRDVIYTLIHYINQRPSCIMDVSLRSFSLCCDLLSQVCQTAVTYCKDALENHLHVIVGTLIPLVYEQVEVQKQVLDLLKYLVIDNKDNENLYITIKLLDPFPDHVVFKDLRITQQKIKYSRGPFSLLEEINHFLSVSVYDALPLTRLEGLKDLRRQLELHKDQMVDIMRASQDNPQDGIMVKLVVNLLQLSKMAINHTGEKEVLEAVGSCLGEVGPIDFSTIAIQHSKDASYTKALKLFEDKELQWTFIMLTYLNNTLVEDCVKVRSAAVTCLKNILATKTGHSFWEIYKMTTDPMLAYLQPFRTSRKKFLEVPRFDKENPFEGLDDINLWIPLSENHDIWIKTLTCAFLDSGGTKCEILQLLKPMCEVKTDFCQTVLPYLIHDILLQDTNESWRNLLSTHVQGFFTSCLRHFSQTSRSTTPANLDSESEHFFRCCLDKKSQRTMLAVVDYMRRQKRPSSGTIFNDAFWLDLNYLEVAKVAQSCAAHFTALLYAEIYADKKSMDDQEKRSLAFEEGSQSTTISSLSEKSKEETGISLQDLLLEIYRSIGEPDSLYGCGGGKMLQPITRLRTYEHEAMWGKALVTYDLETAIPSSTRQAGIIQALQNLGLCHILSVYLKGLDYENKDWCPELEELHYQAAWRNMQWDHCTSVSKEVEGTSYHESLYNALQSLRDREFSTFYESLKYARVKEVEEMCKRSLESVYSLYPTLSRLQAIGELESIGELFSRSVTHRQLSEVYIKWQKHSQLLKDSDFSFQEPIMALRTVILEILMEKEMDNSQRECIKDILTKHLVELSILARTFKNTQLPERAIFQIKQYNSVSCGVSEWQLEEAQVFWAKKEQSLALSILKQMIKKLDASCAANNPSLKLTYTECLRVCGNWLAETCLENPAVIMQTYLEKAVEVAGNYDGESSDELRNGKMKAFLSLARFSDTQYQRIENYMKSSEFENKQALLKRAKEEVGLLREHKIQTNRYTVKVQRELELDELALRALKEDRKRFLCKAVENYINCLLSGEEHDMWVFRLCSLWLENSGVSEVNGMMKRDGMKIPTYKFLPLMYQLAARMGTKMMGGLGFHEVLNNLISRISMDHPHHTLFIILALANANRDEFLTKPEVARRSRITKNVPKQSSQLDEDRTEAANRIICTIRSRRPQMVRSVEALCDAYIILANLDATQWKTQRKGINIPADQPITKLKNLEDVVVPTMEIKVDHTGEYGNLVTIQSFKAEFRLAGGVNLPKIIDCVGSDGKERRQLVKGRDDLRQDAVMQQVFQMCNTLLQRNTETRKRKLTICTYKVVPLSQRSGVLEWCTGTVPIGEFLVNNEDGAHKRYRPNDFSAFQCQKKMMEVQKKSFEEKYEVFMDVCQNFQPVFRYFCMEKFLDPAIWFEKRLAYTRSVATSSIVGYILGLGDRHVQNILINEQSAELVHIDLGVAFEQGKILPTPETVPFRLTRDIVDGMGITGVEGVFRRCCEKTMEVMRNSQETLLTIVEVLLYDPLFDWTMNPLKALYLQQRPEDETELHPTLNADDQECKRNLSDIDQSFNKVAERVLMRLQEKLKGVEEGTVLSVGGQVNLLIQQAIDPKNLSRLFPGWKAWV

Row | Compound | IC50 [1] | IC50 [2] | inhibitory effect on tumor volume and tumor weight, in words ([3]; combined with irinotecan liposome injection, compared with AZD1390) | D 17 TGI [3] | D 17 TV (MEAN ± SD) [3] | Tumor weight [3] | Tumor weight inhibitory rate [3] | D 17 TGI [4] | D 17 TV (MEAN ± SD) [4]
1 | Cn1c(=O)n2c3c4c(c(-c5ccc(OCCCN6CCCCC6)nc5)c(F)cc4ncc31)NCC2(C)C [Example A-193, 6-fluoro-2,10,10-trimethyl-7-(6-(3-(piperidin-1-yl)propoxy)pyridin-3-yl)-2,8,9,10-tetrahydro-1H-2,4,8,10a-tetraazanaphtho[2,1,8-cde]azulen-1(2H)-one] | 0.65 nM | 10.1 nM | higher than those of AZD1390 | 87.5% | 225.9 ± 69.4***^### mm^3 | 0.24 ± 0.06 g | 60.2% | 81.1% | 310 ± 61***^# mm^3
2 | CC(C)n1c(=O)n(C)c2cnc3cc(F)c(-c4ccc(OCCCN5CCCCC5)nc4)cc3c21 [AZD1390, reference compound] | 0.2 nM | 2.79 nM | – | 60.3% | 342.8 ± 110.6*** mm^3 | 0.32 ± 0.09 g | 45.3% | 82.8% | 294 ± 52***^# mm^3
